Experimental data published in patent publication US20240247024A1, “INHIBITORS OF NICOTINAMIDE N-METHYL TRANSFERASE (NNMT)” (UNIVERSITEIT LEIDEN, priority 2021, published 2024).
Where two headings read alike, the source gives them in different places.

Legend:
[1] = tested on: HSC-2 human oral cancer cell line; test: MTT cell proliferation assay, HSC-2; assay type: cell-based; details: for % of DMSO control at 100 μM, HSC-2, 24 h: 24 h incubation; for % of DMSO control at 100 μM, HSC-2, 48 h: 48 h incubation; for % of DMSO control at 100 μM, HSC-2, 72 h: 72 h incubation
Description: (§1) UROTsa immortalized human urothelium cell line, HSC-2 human oral cancer cell line, T24 human bladder cancer cell line and A549 human lung cancer line were purchased from the American Type Culture Collection (ATCC, Rockville, MD, USA), and cultured in DMEM/F12 medium, supplemented with 10% fetal bovine serum and 50 μg/ml gentamicin, at 37° C. in a humidified 5% CO2 incubator. For each compound tested, powder was dissolved in DMSO at 100 mM concentration. This stock solution was then diluted in culture medium to final concentration values ranging between 1 μM and 100 μM. For each sample, DMSO was kept constant at 0.1% final concentration. The day before starting treatment, cells were seeded in 96-well plates, at a density of 2000 cells/well. Cells were allowed to attach overnight and then incubated with compounds at different final concentrations, or with DMSO only, for 24, 48 and 72 hours. All experiments were performed in triplicate.
(§2) Cell proliferation was determined using a colorimetric assay with 3-(4,5-dimethylthiazol-2-yl)-2,5-diphenyl tetrazolium bromide (MTT). The MTT assay measures the conversion of MTT to insoluble formazan by dehydrogenase enzymes of the intact mitochondria of living cells. Cell proliferation was evaluated by measuring the conversion of the tetrazolium salt MTT to formazan crystals upon treatment with compounds or DMSO only for 24, 48 and 72 hours. Briefly, cells were incubated for 2 hours at 37° C. with 100 μl fresh culture medium containing 5 μl of MTT reagent (5 mg/ml in PBS). The medium was removed and 200 μl isopropanol were added. The amount of formazan crystals formed correlated directly with the number of viable cells. The reaction product was quantified by measuring the absorbance at 540 nm using an ELISA plate reader. Experiments were repeated three times. Results were expressed as percentage of the control (control equals 100% and corresponds to the absorbance value of each sample at time zero) and presented as mean values±standard deviation of three independent experiments performed in triplicate.
(§3) Data were analysed using GraphPad Prism software for Windows (GraphPad Software, San Diego, CA). Significant differences between groups were determined using the one-way analysis of variance (ANOVA). A p value <0.05 was considered as statistically significant.

[2] = tested on: T24 human bladder cancer cell line; test: MTT cell proliferation assay, T24; assay type: cell-based; details: for % of DMSO control at 100 μM, T24, 24 h: 24 h incubation; for % of DMSO control at 100 μM, T24, 48 h: 48 h incubation; for % of DMSO control at 100 μM, T24, 72 h: 72 h incubation
Description: as §1, §2, §3

[3] = tested on: A549 human lung cancer line; test: MTT cell proliferation assay, A549; assay type: cell-based; details: for % of DMSO control at 100 μM, A549, 24 h: 24 h incubation; for % of DMSO control at 100 μM, A549, 48 h: 48 h incubation; for % of DMSO control at 100 μM, A549, 72 h: 72 h incubation
Description: as §1, §2, §3

[4] = biological target: T1, NNMT (Homo sapiens, UniProt P40261); test: NNMT assay (HILIC-MS/MS, formation of MNA); details: NA 200 μM, SAM 8.5 μM, maximum concentration tested 25 μM
T1 sequence (P40261 1-264): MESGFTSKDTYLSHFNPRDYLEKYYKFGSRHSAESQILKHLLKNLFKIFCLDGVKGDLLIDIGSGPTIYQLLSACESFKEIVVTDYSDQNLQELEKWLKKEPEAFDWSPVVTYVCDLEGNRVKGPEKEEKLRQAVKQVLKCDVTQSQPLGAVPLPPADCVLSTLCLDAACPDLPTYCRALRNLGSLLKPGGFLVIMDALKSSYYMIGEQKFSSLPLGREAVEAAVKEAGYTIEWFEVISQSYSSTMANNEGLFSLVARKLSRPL

[5] = IC50 values (nM), Table 6, amino acid replacement
[6] = IC50 values (μM), Table 6, amino acid replacement

Compound | % of DMSO control at 100 μM, HSC-2, 24 h [1] | % of DMSO control at 100 μM, HSC-2, 48 h [1] | % of DMSO control at 100 μM, HSC-2, 72 h [1] | % of DMSO control at 100 μM, T24, 24 h [2] | % of DMSO control at 100 μM, T24, 48 h [2] | % of DMSO control at 100 μM, T24, 72 h [2] | % of DMSO control at 100 μM, A549, 24 h [3] | % of DMSO control at 100 μM, A549, 48 h [3] | % of DMSO control at 100 μM, A549, 72 h [3] | IC50 [4, 5] [nM] | IC50 [4, 6] [nM] | IC50 ([4]; read-out: IC50 values, Table 1, alkene linked aromatics) [nM] | IC50 ([4]; IC50 values (nM), Table 3, 1-carbon alkyl linkers) [nM] | IC50 ([4]; IC50 values (μM), Table 3, 1-carbon alkyl linkers) [nM]
CCOC(=O)[C@H](CCN(C/C=C/c1ccc(C#N)cc1)C[C@H]1O[C@@H](n2cnc3c(N)ncnc32)[C@H](O)[C@@H]1O)NC(=O)CC(C)(C)c1c(C)cc(C)cc1OC(C)=O [NB60] | 79 % of DMSO control | 44 % of DMSO control | 26 % of DMSO control | 100 % of DMSO control | 50 % of DMSO control | 29 % of DMSO control | 100 % of DMSO control | 100 % of DMSO control | 76 % of DMSO control | – | – | – | – | –
N#Cc1ccc(/C=C/CN(CC[C@H](N)C(=O)O)C[C@H]2O[C@@H](n3cnc4c(N)ncnc43)[C@H](O)[C@@H]2O)cc1 [GYZ-319] | 100 % of DMSO control | 53 % of DMSO control | 49 % of DMSO control | 100 % of DMSO control | 79 % of DMSO control | 86 % of DMSO control | 100 % of DMSO control | 74 % of DMSO control | 66 % of DMSO control | – | – | – | – | –
COC(=O)[C@@H](N)CCN(C/C=C/c1ccc(C#N)cc1)C[C@H]1O[C@@H](n2cnc3c(N)ncnc32)[C@H](O)[C@@H]1O [GYZ-494] | 100 % of DMSO control | 100 % of DMSO control | 87 % of DMSO control | 100 % of DMSO control | 76 % of DMSO control | 100 % of DMSO control | 100 % of DMSO control | 100 % of DMSO control | 88 % of DMSO control | – | – | – | – | –
CCOC(=O)[C@@H](N)CCN(C/C=C/c1ccc(C#N)cc1)C[C@H]1O[C@@H](n2cnc3c(N)ncnc32)[C@H](O)[C@@H]1O [GYZ-552] | 100 % of DMSO control | 100 % of DMSO control | 73 % of DMSO control | 100 % of DMSO control | 100 % of DMSO control | 100 % of DMSO control | 100 % of DMSO control | 100 % of DMSO control | 100 % of DMSO control | – | – | – | – | –
CCCOC(=O)[C@H](CCN(C/C=C/c1ccc(C#N)cc1)C[C@H]1O[C@@H](n2cnc3c(N)ncnc32)[C@H](O)[C@@H]1O)NC(=O)CC(C)(C)c1c(C)cc(C)cc1OC(C)=O [GYZ-580] | 59 % of DMSO control | 41 % of DMSO control | 16 % of DMSO control | 72 % of DMSO control | 36 % of DMSO control | 15 % of DMSO control | 83 % of DMSO control | 45 % of DMSO control | 25 % of DMSO control | – | – | – | – | –
CC(C)OC(=O)[C@@H](N)CCN(C/C=C/c1ccc(C#N)cc1)C[C@H]1O[C@@H](n2cnc3c(N)ncnc32)[C@H](O)[C@@H]1O [GYZ-553] | 100 % of DMSO control | 75 % of DMSO control | 56 % of DMSO control | 100 % of DMSO control | 71 % of DMSO control | 100 % of DMSO control | 100 % of DMSO control | 100 % of DMSO control | 100 % of DMSO control | – | – | – | – | –
CC(=O)Oc1cc(C)cc(C)c1C(C)(C)CC(=O)N[C@@H](CCN(C/C=C/c1ccc(C#N)cc1)C[C@H]1O[C@@H](n2cnc3c(N)ncnc32)[C@H](O)[C@@H]1O)C(=O)O [MH128] | 100 % of DMSO control | 100 % of DMSO control | 65 % of DMSO control | 100 % of DMSO control | 83 % of DMSO control | 84 % of DMSO control | 100 % of DMSO control | 100 % of DMSO control | 100 % of DMSO control | – | – | – | – | –
CCCCCN(C/C=C/c1ccc(C#N)cc1)C[C@H]1O[C@@H](n2cnc3c(N)ncnc32)[C@H](O)[C@@H]1O [GYZ-718] | – | – | – | – | – | – | – | – | – | > 25000 | > 25000 | – | – | –
N#Cc1ccc(/C=C/CN(CCNC(=O)C(F)(F)Br)C[C@H]2O[C@@H](n3cnc4c(N)ncnc43)[C@H](O)[C@@H]2O)cc1 [GYZ-706] | – | – | – | – | – | – | – | – | – | > 25000 | > 25000 | – | – | –
Nc1ncnc2c1ncn2[C@@H]1O[C@H](CN(C/C=C/c2c(Cl)cccc2Cl)CC[C@H](N)C(=O)O)[C@@H](O)[C@H]1O [GYZ-336] | – | – | – | – | – | – | – | – | – | – | – | > 25000 | – | –
N#Cc1ccc(/C=C/CN(CCCCc2ccccc2)C[C@H]2O[C@@H](n3cnc4c(N)ncnc43)[C@H](O)[C@@H]2O)cc1 [GYZ-756] | – | – | – | – | – | – | – | – | – | > 25000 | > 25000 | – | – | –
CCNCCN(C/C=C/c1ccc(C#N)cc1)C[C@H]1O[C@@H](n2cnc3c(N)ncnc32)[C@H](O)[C@@H]1O [GYZ-761] | – | – | – | – | – | – | – | – | – | > 25000 | > 25000 | – | – | –
C=CC(=O)N1CC(CN(C/C=C/c2ccc(C#N)cc2)C[C@H]2O[C@@H](n3cnc4c(N)ncnc43)[C@H](O)[C@@H]2O)C1 [GYZ-665] | – | – | – | – | – | – | – | – | – | 4160 | 4160 | – | – | –
Nc1ncnc2c1ncn2[C@@H]1O[C@H](CN(CC[C@H](N)C(=O)O)Cc2cccc(C(F)(F)F)c2)[C@@H](O)[C@H]1O [GYZ-416] | – | – | – | – | – | – | – | – | – | – | – | – | 6580 | 6580
